Several values for one entry are separate records, joined by “and”; a condition that tells them apart may be missing. Identical values can stand only once. Starred links: 1 amine or outer side, 2 acyl side, 3 side chain; linkers in the order of their positions; H or OH if unused. Positions of bridges follow the written chain, without caps; N, C: chain ends. Non-standard residues stand in square brackets, D forms with d. Residues, ends and D or L forms follow the SMILES beside them. TATA = O=C(CC[*:1])N1CN(C(=O)CC[*:2])CN(C(=O)CC[*:3])C1; Phe(4-F) = N[C@@H](Cc1ccc(F)cc1)C(=O)O; β3hR = N=C(N)NCCC[C@H](N)CC(=O)O
What was measured:
Assay in all cases: Specificity profiling, residual protease activity
Type in all cases: biochemical
plasmin = molecular target: T1, plasmin (Homo sapiens, UniProt P00747)
T1 construct: nM, thrombin (Molecular Innovations) 1 nM, plasmin (Molecular Innovations) 2.5 nM, trypsin; purchased Molecular Innovations
Description: (§1) Protease inhibition assays
(§2) The inhibitory activity of peptides was determined by measuring the residual protease activity with a fluorogenic substrate. The assay was performed in buffer containing 10 mM Tris-Cl, pH […]
(§3) 1% (v/v) DMSO in a volume of 150 µl. […]
(§4) HFXIIAB) were used at final concentrations of 0.4 nM. The reaction was pipetted as follows: 50 µl of bicyclic peptide in assay buffer were added to 50 µl of FXIIa in assay buffer and incubated for 10 minutes at 25°C before 50 µl of 150 µM fluorogenic substrate in assay buffer were added to measure the residual protease activity with an Infinite M200Pro fluorescence plate reader (excitation at 368 nm, emission at 467 nm; Tecan) for a period of 30 minutes with a read every minute at 25°C. The Tecan software i-control (version 1.1) was used for data analysis. Stock solutions of 1 mM bicyclic peptide were prepared by either dissolving the unpurified cyclization reaction with water or by dissolving purified and lyophilized peptide in water. The bicyclic peptides were serially diluted two-fold using assay buffer. Sigmoidal curves were fitted to the data using the following dose response equation (1), wherein x = peptide concentration, y = % protease activity, and p = Hill slope. IC50 values were derived from the fitted curve.
(§5) The inhibition constants (Ki) were calculated according to the equation of Cheng and Prusoff, Ki = IC50/(1+([S]0/Km), wherein IC50 is the functional strength of the inhibitor, [S]0 is the total substrate concentration, and Km is the Michaelis-Menten constant. […]
(§6) For testing the specificity of the bicyclic peptides, the following final concentrations of human serine proteases were used: tPA (Molecular Innovations) 7.5 nM, uPA (Molecular Innovations) 1.5 nM, factor XIa (Innovative Research) 6 nM, plasma kallikrein (Innovative Research) 0.25 nM, thrombin (Molecular Innovations) 1 nM, plasmin (Molecular Innovations) 2.5 nM, trypsin (Molecular Innovations) 0.05 nM, factor VIIa (Haematologic Technologies) 50 nM, factor Xa […]
(§7) (Haematologic Technologies) 6 nM, and activated protein C (APC) 5 nM. Two-fold dilutions of the peptide were prepared that ranged from 0.04 to 40 µM. The following fluorogenic substrates were used at a final concentration of 50 µM: Z-Phe-Arg-AMC (Bachem) for plasma kallikrein; Boc-Phe-Ser-Arg-AMC (Bachem) for factor XIa; Z-Gly-Gly-Arg-AMC (Bachem) for tPA, uPA, thrombin, and trypsin; H-D-Val-Leu-Lys-AMC (Bachem) for plasmin; and D-Phe-Pro-Arg-ANSNH-C4H9 (Haematologic Technologies) for FVIIa and FXa. For APC, the chromogenic substrate pyroGlu-Pro-Arg-pNA (S2366) was used at a concentration of 400 µM. […]

thrombin = molecular target: T2, thrombin (Homo sapiens, UniProt P00734)
T2 construct: nM, thrombin (Molecular Innovations) 1 nM, plasmin (Molecular Innovations) 2.5 nM, trypsin; purchased Molecular Innovations
Description: as §1, §2, §3, §4, §5, §6, §7

factor XIa = molecular target: T3, factor XIa (Homo sapiens, UniProt P03951)
T3 construct: 1.5 nM, factor XIa (Innovative Research) 6 nM, plasma kallikrein (Innovative Research) 0.25; purchased Innovative Research
Description: as §1, §2, §3, §4, §5, §6, §7

[1] = inhibitor 39.0625 nM, 0.0390625 µM
[2] = inhibitor 78.125 nM, 0.078125 µM
[3] = inhibitor 156.25 nM, 0.15625 µM
[4] = inhibitor 40000 nM (40 µM), 40 µM

T3 sequence (P03951 388-625 limits assumed): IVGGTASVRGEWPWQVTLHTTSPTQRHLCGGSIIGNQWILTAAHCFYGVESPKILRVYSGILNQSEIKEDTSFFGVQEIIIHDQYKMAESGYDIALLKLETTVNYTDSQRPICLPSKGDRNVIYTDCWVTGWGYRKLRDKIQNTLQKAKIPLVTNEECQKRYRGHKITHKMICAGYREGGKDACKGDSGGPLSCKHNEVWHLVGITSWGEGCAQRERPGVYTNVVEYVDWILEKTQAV
T3 sequence (P03951 19-387 limits assumed): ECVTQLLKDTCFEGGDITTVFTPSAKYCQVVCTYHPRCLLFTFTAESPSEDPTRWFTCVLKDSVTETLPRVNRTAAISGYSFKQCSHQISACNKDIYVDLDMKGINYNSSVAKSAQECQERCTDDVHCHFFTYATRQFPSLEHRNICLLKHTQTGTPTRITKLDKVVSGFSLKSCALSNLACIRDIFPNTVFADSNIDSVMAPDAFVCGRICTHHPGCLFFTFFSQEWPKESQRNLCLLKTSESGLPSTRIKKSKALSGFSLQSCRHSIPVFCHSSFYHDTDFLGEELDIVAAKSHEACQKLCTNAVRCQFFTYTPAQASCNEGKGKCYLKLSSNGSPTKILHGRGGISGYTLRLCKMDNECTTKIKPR
T1 sequence (P00747 581-810 limits assumed): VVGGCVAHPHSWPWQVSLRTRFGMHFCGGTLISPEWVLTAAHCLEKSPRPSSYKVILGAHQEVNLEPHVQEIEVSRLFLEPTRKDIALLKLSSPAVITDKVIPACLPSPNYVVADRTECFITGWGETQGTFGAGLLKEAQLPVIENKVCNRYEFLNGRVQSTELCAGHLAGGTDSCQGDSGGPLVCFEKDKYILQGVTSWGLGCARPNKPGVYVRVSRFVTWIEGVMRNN
T1 sequence (P00747 97-580 limits assumed): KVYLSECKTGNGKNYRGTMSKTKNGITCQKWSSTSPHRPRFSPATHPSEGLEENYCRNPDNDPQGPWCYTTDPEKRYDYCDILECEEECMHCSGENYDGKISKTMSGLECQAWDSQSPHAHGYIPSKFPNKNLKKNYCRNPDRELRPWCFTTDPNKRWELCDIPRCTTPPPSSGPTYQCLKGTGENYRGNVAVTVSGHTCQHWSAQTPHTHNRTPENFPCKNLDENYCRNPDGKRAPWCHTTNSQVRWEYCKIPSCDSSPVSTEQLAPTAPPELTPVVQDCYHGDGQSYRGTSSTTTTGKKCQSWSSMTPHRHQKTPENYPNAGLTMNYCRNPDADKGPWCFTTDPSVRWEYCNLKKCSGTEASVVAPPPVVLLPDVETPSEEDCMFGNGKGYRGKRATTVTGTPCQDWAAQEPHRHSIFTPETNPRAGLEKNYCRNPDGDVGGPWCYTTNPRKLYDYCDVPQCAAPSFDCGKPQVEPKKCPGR

Compound: CC(C)C[C@@H]1NC(=O)[C@H](CCC(N)=O)NC(=O)[C@H](Cc2c[nH]cn2)NC(=O)[C@@H]2CSCCC(=O)N3CN(CN(C3)C(=O)CCSC[C@H](NC(=O)[C@@H](CO)NC(=O)[C@H](N)CCCNC(=N)N)C(=O)N[C@@H](Cc3ccc(F)cc3)C(=O)N[C@@H](CCCNC(=N)N)C(=O)N[C@@H](CC(C)C)C(=O)N3CCC[C@H]3C(=O)N2)C(=O)CCSC[C@@H](C(N)=O)NC(=O)C[C@H](CCCNC(=N)N)NC1=O [FXII900] (H-[dR][dS]C[Phe(4-F)]RLPCHQL[β3hR]C-NH2; linker 3-8-13 via TATA)
- Ki (plasmin): > 40 µM
- remaining activity at 0.0390625 µM (plasmin; inhibitor 39.0625 nM): 101%
- Residual activity of Plasmin (plasmin; [1]): 100% and 98.04%
- remaining activity at 0.078125 µM (plasmin; inhibitor 78.125 nM): 99.7%
- Residual activity of Plasmin (plasmin; [2]): 92.966% and 98.2808%
- remaining activity at 0.15625 µM (plasmin; inhibitor 156.25 nM): 99.4%
- Residual activity of Plasmin (plasmin; [3]): 100.413% and 98.2682%
- remaining activity at 0.3125 µM (plasmin; inhibitor 312.5 nM): 98.2%
- Residual activity of Plasmin (plasmin; inhibitor 312.5 nM, 0.3125 µM): 95.1408% and 95.4545%
- remaining activity at 0.625 µM (plasmin; inhibitor 625 nM): 98.8%
- Residual activity of Plasmin (plasmin; inhibitor 625 nM, 0.625 µM): 96.2495% and 97.8119%
- remaining activity at 1.25 µM (plasmin; inhibitor 1250 nM): 95.1%
- Residual activity of Plasmin (plasmin; inhibitor 1250 nM, 1.25 µM): 99.629% and 97.1835%
- remaining activity at […] (plasmin; inhibitor 2500 nM): 92%
- remaining activity at 5 µM (plasmin; inhibitor 5000 nM): 96%
- Residual activity of Plasmin (plasmin; inhibitor 5000 nM, 5 µM): 97.8045% and 97.3192%
- remaining activity at 10 µM (plasmin; inhibitor 10000 nM): 93.7%
- Residual activity of Plasmin (plasmin; inhibitor 10000 nM, 10 µM): 101.477% and 94.8276%
- remaining activity at 20 µM (plasmin; inhibitor 20000 nM): 87.5%
- Residual activity of Plasmin (plasmin; inhibitor 20000 nM, 20 µM): 91.7224% and 90.5875%
- remaining activity at 40 µM (plasmin; inhibitor 40000 nM (40 µM)): 86 ± 5%
- Residual activity of Plasmin (plasmin; [4]): 82.6102% and 91.6986% and 84.2986%
- Ki (thrombin): > 40 µM
- remaining activity at 0.0390625 µM (thrombin; inhibitor 39.0625 nM): 101%
- Residual activity of Thrombin (thrombin; [1]): 100%
- remaining activity at 0.078125 µM (thrombin; inhibitor 78.125 nM): 103%
- Residual activity of Thrombin (thrombin; [2]): 98.3135%
- remaining activity at 0.15625 µM (thrombin; inhibitor 156.25 nM): 105%
- Residual activity of Thrombin (thrombin; [3]): 102.594%
- remaining activity at 0.3125 µM (thrombin; inhibitor 312.5 nM): 104%
- Residual activity of Thrombin (thrombin; inhibitor 312.5 nM, 0.3125 µM): 101.218%
- remaining activity at 0.625 µM (thrombin; inhibitor 625 nM): 102%
- Residual activity of Thrombin (thrombin; inhibitor 625 nM, 0.625 µM): 96.4184%
- remaining activity at 1.25 µM (thrombin; inhibitor 1250 nM): 105%
- Residual activity of Thrombin (thrombin; inhibitor 1250 nM, 1.25 µM): 102.09%
- remaining activity at […] (thrombin; inhibitor 2500 nM): 103%
- Residual activity of Thrombin (thrombin; inhibitor 2500 nM, […]): 101.007%
- remaining activity at 5 µM (thrombin; inhibitor 5000 nM): 105%
- Residual activity of Thrombin (thrombin; inhibitor 5000 nM, 5 µM): 93.4869%
- remaining activity at 10 µM (thrombin; inhibitor 10000 nM): 99%
- Residual activity of Thrombin (thrombin; inhibitor 10000 nM, 10 µM): 98.045%
- remaining activity at 20 µM (thrombin; inhibitor 20000 nM): 102%
- Residual activity of Thrombin (thrombin; inhibitor 20000 nM, 20 µM): 95.8152%
- remaining activity at 40 µM (thrombin; inhibitor 40000 nM (40 µM)): 95%
- Residual activity of Thrombin (thrombin; [4]): 99.0803% and 90.0661%
- Residual activity of FXIa (factor XIa; [1]): 100.642%
- remaining activity at 0.0390625 µM (factor XIa; inhibitor 39.0625 nM, read-out: Residual activity of FXIa): 96.6%
- Residual activity of FXIa (factor XIa; [2]): 103.852%
- remaining activity at 0.078125 µM (factor XIa; inhibitor 78.125 nM, read-out: Residual activity of FXIa): 93.8%
- Residual activity of FXIa (factor XIa; [3]): 98.179%
- remaining activity at 0.15625 µM (factor XIa; inhibitor 156.25 nM, read-out: Residual activity of FXIa): 94.7%
- Residual activity of FXIa (factor XIa; inhibitor 312.5 nM, 0.3125 µM): 98.2463%
- remaining activity at 0.3125 µM (factor XIa; inhibitor 312.5 nM, read-out: Residual activity of FXIa): 97.5%
- Residual activity of FXIa (factor XIa; inhibitor 625 nM, 0.625 µM): 97.4314%
- remaining activity at 0.625 µM (factor XIa; inhibitor 625 nM, read-out: Residual activity of FXIa): 94.9%
- Residual activity of FXIa (factor XIa; inhibitor 1250 nM, 1.25 µM): 98.4364%
- remaining activity at 1.25 µM (factor XIa; inhibitor 1250 nM, read-out: Residual activity of FXIa): 94.1%
- Residual activity of FXIa (factor XIa; inhibitor 2500 nM, […]): 98.6547%
- remaining activity at […] (factor XIa; inhibitor 2500 nM, read-out: Residual activity of FXIa): 91.5%
- Residual activity of FXIa (factor XIa; inhibitor 5000 nM, 5 µM): 98.6945%
- remaining activity at 5 µM (factor XIa; inhibitor 5000 nM, read-out: Residual activity of FXIa): 98.9%
- Residual activity of FXIa (factor XIa; inhibitor 10000 nM, 10 µM): 99.1545%
- remaining activity at 10 µM (factor XIa; inhibitor 10000 nM, read-out: Residual activity of FXIa): 97.3%
- Residual activity of FXIa (factor XIa; inhibitor 20000 nM, 20 µM): 95.8964%
- remaining activity at 20 µM (factor XIa; inhibitor 20000 nM, read-out: Residual activity of FXIa): 96.3%
- Residual activity of FXIa (factor XIa; [4]): 95.5908% and 94.7249%
- remaining activity at 40 µM (factor XIa; inhibitor 40000 nM (40 µM), read-out: Residual activity of FXIa): 95.1%
- Ki (factor XIa; read-out: Ki FXIa): > 40 µM
